Experimental data from ChEMBL document CHEMBL5696442, “Discovery of type II inhibitors of TGFβ-activated kinase 1 (TAK1) and mitogen-activated protein kinase kinase kinase kinase 2 (MAP4K2)” (J Med Chem, 2015).

Legend:
[1] = molecular target: Proto-oncogene tyrosine-protein kinase receptor Ret (Homo sapiens) (UniProt P07949); test: Inhibition of RET (unknown origin) at 10 uM by Ambit Kinomescan binding assay relative to control; values are per cent of control
[2] = molecular target: T1, Mitogen-activated protein kinase kinase kinase 5 (Homo sapiens) (UniProt Q99683); test: Inhibition of MAP3K5 Lys1 labeling site harbouring IAIKEIPER in human A-375 cells at 5 uM by KiNativ Profiling analysis relative to control; format: cell-based
T1 sequence (whole entry): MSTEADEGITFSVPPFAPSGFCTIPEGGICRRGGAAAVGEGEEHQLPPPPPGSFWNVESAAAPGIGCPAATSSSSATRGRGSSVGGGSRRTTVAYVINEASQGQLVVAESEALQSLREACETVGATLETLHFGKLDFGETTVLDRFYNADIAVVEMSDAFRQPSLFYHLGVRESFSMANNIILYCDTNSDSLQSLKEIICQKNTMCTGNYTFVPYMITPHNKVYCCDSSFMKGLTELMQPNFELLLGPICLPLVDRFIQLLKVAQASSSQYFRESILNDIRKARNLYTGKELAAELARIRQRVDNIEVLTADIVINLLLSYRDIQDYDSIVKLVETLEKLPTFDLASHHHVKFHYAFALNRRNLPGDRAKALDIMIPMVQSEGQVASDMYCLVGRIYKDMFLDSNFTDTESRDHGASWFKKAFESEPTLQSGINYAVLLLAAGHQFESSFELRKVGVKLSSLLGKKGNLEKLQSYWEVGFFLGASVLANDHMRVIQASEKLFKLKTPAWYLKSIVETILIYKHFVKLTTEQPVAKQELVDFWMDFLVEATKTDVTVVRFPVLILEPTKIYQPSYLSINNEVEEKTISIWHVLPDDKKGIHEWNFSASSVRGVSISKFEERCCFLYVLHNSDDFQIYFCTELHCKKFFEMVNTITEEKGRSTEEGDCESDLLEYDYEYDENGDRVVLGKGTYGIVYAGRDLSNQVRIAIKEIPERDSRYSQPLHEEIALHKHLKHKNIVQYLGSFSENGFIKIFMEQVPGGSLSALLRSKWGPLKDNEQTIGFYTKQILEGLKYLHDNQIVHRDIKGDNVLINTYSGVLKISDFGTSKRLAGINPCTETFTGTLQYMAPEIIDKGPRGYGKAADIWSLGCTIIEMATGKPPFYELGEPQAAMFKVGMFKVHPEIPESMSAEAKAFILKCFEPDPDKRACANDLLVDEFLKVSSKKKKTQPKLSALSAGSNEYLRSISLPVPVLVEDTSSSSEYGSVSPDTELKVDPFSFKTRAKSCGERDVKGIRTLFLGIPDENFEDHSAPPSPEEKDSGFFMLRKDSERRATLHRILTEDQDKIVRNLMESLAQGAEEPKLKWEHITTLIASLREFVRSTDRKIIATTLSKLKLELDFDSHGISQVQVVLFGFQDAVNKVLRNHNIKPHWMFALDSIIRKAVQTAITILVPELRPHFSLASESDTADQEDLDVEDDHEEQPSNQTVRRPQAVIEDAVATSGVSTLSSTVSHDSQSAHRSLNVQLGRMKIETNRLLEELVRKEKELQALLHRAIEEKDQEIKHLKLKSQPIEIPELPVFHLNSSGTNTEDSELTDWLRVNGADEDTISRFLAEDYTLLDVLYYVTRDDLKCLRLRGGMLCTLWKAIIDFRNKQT

[3] = molecular target: T2, Mitogen-activated protein kinase kinase kinase kinase 2 (Homo sapiens) (UniProt Q12851); test: Inhibition of MAP4K2 Lys1 labeling site in human A-375 cells at 5 uM by KiNativ Profiling analysis relative to control; format: cell-based
T2 sequence (whole entry): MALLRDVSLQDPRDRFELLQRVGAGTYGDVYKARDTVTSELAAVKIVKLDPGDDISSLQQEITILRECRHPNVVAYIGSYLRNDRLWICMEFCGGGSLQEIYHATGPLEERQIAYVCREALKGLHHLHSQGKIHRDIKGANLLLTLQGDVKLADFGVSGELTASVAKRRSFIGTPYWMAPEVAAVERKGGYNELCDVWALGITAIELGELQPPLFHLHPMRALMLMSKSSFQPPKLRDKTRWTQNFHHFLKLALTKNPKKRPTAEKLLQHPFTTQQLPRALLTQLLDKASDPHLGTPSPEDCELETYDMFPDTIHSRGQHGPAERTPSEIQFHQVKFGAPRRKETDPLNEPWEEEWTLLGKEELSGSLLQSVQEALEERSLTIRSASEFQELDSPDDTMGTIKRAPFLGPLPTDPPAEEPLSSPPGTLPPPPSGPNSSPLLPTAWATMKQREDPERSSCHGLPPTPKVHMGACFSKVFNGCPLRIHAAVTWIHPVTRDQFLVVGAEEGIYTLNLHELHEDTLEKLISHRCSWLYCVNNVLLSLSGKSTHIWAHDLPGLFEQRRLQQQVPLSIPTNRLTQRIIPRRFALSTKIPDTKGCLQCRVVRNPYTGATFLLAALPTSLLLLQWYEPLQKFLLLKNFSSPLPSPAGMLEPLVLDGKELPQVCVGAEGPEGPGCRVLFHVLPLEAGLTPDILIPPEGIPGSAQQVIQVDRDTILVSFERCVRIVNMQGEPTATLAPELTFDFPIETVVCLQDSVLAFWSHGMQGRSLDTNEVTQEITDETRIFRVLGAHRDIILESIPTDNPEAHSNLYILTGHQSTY

Sequence of Proto-oncogene tyrosine-protein kinase receptor Ret (Homo sapiens) (P07949 whole entry): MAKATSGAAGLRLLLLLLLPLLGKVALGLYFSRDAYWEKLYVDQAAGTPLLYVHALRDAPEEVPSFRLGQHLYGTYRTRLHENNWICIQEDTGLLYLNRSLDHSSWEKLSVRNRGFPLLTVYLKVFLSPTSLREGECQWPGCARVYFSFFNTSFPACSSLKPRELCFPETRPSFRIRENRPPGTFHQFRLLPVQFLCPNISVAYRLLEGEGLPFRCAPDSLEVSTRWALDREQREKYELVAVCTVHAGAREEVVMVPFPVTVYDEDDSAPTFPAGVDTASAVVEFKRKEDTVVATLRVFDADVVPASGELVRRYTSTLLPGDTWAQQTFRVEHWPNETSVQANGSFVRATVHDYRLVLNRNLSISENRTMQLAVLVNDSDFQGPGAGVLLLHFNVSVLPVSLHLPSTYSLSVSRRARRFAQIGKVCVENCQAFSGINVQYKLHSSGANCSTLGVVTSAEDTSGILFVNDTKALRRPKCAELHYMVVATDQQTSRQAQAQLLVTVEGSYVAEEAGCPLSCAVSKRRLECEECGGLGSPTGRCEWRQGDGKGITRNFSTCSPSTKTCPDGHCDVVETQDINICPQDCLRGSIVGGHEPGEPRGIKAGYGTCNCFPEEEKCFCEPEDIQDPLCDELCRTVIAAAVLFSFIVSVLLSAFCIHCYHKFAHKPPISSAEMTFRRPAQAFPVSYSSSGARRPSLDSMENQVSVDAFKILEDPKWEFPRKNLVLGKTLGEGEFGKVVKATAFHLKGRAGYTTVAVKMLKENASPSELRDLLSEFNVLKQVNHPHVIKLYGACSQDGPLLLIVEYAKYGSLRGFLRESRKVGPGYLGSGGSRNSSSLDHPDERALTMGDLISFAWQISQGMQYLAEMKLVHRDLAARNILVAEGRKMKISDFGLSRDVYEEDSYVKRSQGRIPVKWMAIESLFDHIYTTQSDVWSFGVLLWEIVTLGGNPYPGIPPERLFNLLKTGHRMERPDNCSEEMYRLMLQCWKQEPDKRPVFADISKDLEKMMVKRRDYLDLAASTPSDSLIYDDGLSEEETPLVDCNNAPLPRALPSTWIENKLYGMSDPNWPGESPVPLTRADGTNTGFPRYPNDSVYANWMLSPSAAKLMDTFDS

## CCN1CCN(Cc2ccc(NC(=O)c3ccc(C)c(Oc4ccnc5[nH]ccc45)c3)cc2C(F)(F)F)CC1
[1]
  residual activity: 0%
[2]
  inhibition: -0.6%
[3]
  inhibition: > 99.5%
